Reference: patent US8642063B2, “Implantable medical device coatings with biodegradable elastomer and releasable taxane agent” (priority 2008, dated 2014)

Experiment: Solubility / elution of paclitaxel solid forms in porcine serum
Type: physicochemical
Settings: 37° C.
Text: For example, amorphous and dihydrate taxane solid forms may be readily identified and differentiated by visual appearance and elution rates. […] In addition, the presence of different solid forms of the taxane agent in a medical device coating can be identified and quantified by contacting the coating with an elution medium that selectively dissolves one solid form more readily than a second solid form. In solution with an elution medium, such as porcine serum or blood, the presence of the taxane agent can be identified, for example by using ultraviolet (UV) spectroscopy or high pressure liquid chromatography (HPLC). […] Non-solvated solid forms include amorphous or anhydrous solid forms.
The amount of taxane agent released from coating into the elution medium, and the rate of release of the taxane agent from a coating, can be measured by any suitable method that allows for measurement of the release of the taxane agent with a desired level of accuracy and precision. The taxane agent in the coating can be determined by dissolving the coating in a suitable elution medium and subsequently detecting the amount of taxane agent in the elution medium. The taxane agent dissolved in the elution medium can be detected using any suitable technique. […] This correlation involves the linear relationship between optical density (absorbance) and concentration of an absorbing species. […]

- solubility after 24 hours in porcine serum: less than 40 wt %
Structure (SMILES): CC(=O)O[C@H]1C(=O)[C@@]2(C)[C@H]([C@H](OC(=O)c3ccccc3)[C@]3(O)C[C@H](OC(=O)[C@H](O)[C@@H](NC(=O)c4ccccc4)c4ccccc4)C(C)=C1C3(C)C)[C@]1(OC(C)=O)CO[C@@H]1C[C@@H]2O [dihydrate paclitaxel, paclitaxel]
